Data from paper PMC9668969 (Nature Communications, 2022).

Test system: WT ELIC
Assay: Tryptophan fluorescence emission spectrum with and without agonist
Assay type: biochemical, Erwinia chrysanthemi
Conditions: WT 30 mM Cys
Experimental: To measure the tryptophan (Trp) fluorescence emission of ELIC, WT or W206F ELIC was diluted to 3 ml (0.02 mg/ml) and an emission spectrum was collected in a quartz fluorescence cell using a Fluoromax Plus Spectrofluorometer (Horiba Scientific). […] Trp fluorescence measurements with rapid mixing of agonist was carried out using the SX20 stopped-flow spectrofluorometer, outfitted with a 295 nm LED excitation source. Purified ELIC was diluted to 0.1 mg/ml in Trp Stopped-flow Buffer A (10 mM Tris pH 7.5, 100 mM NaCl, 0.05% DDM). A single mixing experiment was performed by mixing ELIC with equal volumes of Buffer A + propylamine. Propylamine was prepared at varying concentrations at 2x the final concentration. The instrument dead time was ~1 ms, enabling capture of most of the time course of change in Trp fluorescence. The time course of decrease in Trp fluorescence after rapid mixing with propylamine was fit to a single exponential to obtain a time constant for the rate of decrease and a measure of the extent of decrease. All replicates were taken from distinct samples.

NCCS [cysteamine]
Tryptophan fluorescence emission intensity (wavelength 320): 804590 | Tryptophan fluorescence emission intensity (wavelength 321): 840110 | Tryptophan fluorescence emission intensity (wavelength 322): 860020 | Tryptophan fluorescence emission intensity (wavelength 323): 881470 | Tryptophan fluorescence emission intensity (wavelength 324): 898170 | Tryptophan fluorescence emission intensity (wavelength 325): 925090 | Tryptophan fluorescence emission intensity (wavelength 327): 958460 | Tryptophan fluorescence emission intensity (wavelength 328): 977560 | Tryptophan fluorescence emission intensity (wavelength 329): 1001430 | Tryptophan fluorescence emission intensity (wavelength 330): 1017700 | Tryptophan fluorescence emission intensity (wavelength 331): 1038960 | Tryptophan fluorescence emission intensity (wavelength 332): 1051130 | Tryptophan fluorescence emission intensity (wavelength 333): 1064180 | Tryptophan fluorescence emission intensity (wavelength 334): 1076000 | Tryptophan fluorescence emission intensity (wavelength 335): 1094750 | Tryptophan fluorescence emission intensity (wavelength 336): 1105230 | Tryptophan fluorescence emission intensity (wavelength 337): 1102570 | Tryptophan fluorescence emission intensity (wavelength 338): 1110270 | Tryptophan fluorescence emission intensity (wavelength 339): 1107370 | Tryptophan fluorescence emission intensity (wavelength 340): 1100850 | Tryptophan fluorescence emission intensity (wavelength 341): 1109610 | Tryptophan fluorescence emission intensity (wavelength 342): 1105480 | Tryptophan fluorescence emission intensity (wavelength 343): 1098150 | Tryptophan fluorescence emission intensity (wavelength 344): 1095000 | Tryptophan fluorescence emission intensity (wavelength 345): 1092160 | Tryptophan fluorescence emission intensity (wavelength 346): 1088360 | Tryptophan fluorescence emission intensity (wavelength 347): 1077030 | Tryptophan fluorescence emission intensity (wavelength 348): 1068840 | Tryptophan fluorescence emission intensity (wavelength 349): 1066310 | Tryptophan fluorescence emission intensity (wavelength 350): 1055290 | Tryptophan fluorescence emission intensity (wavelength 351): 1041270 | Tryptophan fluorescence emission intensity (wavelength 352): 1036270 | Tryptophan fluorescence emission intensity (wavelength 353): 1015310 | Tryptophan fluorescence emission intensity (wavelength 354): 1003150 | Tryptophan fluorescence emission intensity (wavelength 355): 990040 | Tryptophan fluorescence emission intensity (wavelength 356): 980580 | Tryptophan fluorescence emission intensity (wavelength 357): 950350 | Tryptophan fluorescence emission intensity (wavelength 358): 943630 | Tryptophan fluorescence emission intensity (wavelength 359): 918190 | Tryptophan fluorescence emission intensity (wavelength 360): 914380 | Tryptophan fluorescence emission intensity (wavelength 361): 899440 | Tryptophan fluorescence emission intensity (wavelength 362): 877520 | Tryptophan fluorescence emission intensity (wavelength 363): 850800 | Tryptophan fluorescence emission intensity (wavelength 364): 821470 | Tryptophan fluorescence emission intensity (wavelength 365): 795670 | Tryptophan fluorescence emission intensity (wavelength 366): 776390 | Tryptophan fluorescence emission intensity (wavelength 367): 752920 | Tryptophan fluorescence emission intensity (wavelength 368): 732340 | Tryptophan fluorescence emission intensity (wavelength 369): 720880 | Tryptophan fluorescence emission intensity (wavelength 370): 691880 | Tryptophan fluorescence emission intensity (wavelength 371): 677380 | Tryptophan fluorescence emission intensity (wavelength 372): 661530 | Tryptophan fluorescence emission intensity (wavelength 373): 643370 | Tryptophan fluorescence emission intensity (wavelength 374): 622610 | Tryptophan fluorescence emission intensity (wavelength 375): 605580 | Tryptophan fluorescence emission intensity (wavelength 376): 584360 | Tryptophan fluorescence emission intensity (wavelength 377): 567600 | Tryptophan fluorescence emission intensity (wavelength 378): 558770 | Tryptophan fluorescence emission intensity (wavelength 379): 531360 | Tryptophan fluorescence emission intensity (wavelength 380): 517880 | Tryptophan fluorescence emission intensity (wavelength 381): 499820 | Tryptophan fluorescence emission intensity (wavelength 382): 482620 | Tryptophan fluorescence emission intensity (wavelength 383): 465090 | Tryptophan fluorescence emission intensity (wavelength 384): 451150 | Tryptophan fluorescence emission intensity (wavelength 385): 428430 | Tryptophan fluorescence emission intensity (wavelength 386): 420060 | Tryptophan fluorescence emission intensity (wavelength 387): 400770 | Tryptophan fluorescence emission intensity (wavelength 388): 385350 | Tryptophan fluorescence emission intensity (wavelength 389): 381600 | Tryptophan fluorescence emission intensity (wavelength 390): 360170 | Tryptophan fluorescence emission intensity (wavelength 391): 346400 | Tryptophan fluorescence emission intensity (wavelength 392): 340740 | Tryptophan fluorescence emission intensity (wavelength 393): 327660 | Tryptophan fluorescence emission intensity (wavelength 394): 316470 | Tryptophan fluorescence emission intensity (wavelength 395): 301980 | Tryptophan fluorescence emission intensity (wavelength 396): 291020 | Tryptophan fluorescence emission intensity (wavelength 397): 277640 | Tryptophan fluorescence emission intensity (wavelength 398): 265940 | Tryptophan fluorescence emission intensity (wavelength 399): 253020 | Tryptophan fluorescence emission intensity (wavelength 400): 247580 | Tryptophan fluorescence emission intensity (wavelength 401): 237600 | Tryptophan fluorescence emission intensity (wavelength 402): 233050 | Tryptophan fluorescence emission intensity (wavelength 403): 223960 | Tryptophan fluorescence emission intensity (wavelength 404): 210930 | Tryptophan fluorescence emission intensity (wavelength 405): 205250 | Tryptophan fluorescence emission intensity (wavelength 406): 197950 | Tryptophan fluorescence emission intensity (wavelength 407): 191160 | Tryptophan fluorescence emission intensity (wavelength 408): 187280 | Tryptophan fluorescence emission intensity (wavelength 409): 181840 | Tryptophan fluorescence emission intensity (wavelength 410): 170220 | Tryptophan fluorescence emission intensity (wavelength 411): 167400 | Tryptophan fluorescence emission intensity (wavelength 412): 162070 | Tryptophan fluorescence emission intensity (wavelength 413): 154720 | Tryptophan fluorescence emission intensity (wavelength 414): 150730 | Tryptophan fluorescence emission intensity (wavelength 415): 146270 | Tryptophan fluorescence emission intensity (wavelength 416): 141050 | Tryptophan fluorescence emission intensity (wavelength 417): 136250 | Tryptophan fluorescence emission intensity (wavelength 418): 131260 | Tryptophan fluorescence emission intensity (wavelength 419): 129580 | Tryptophan fluorescence emission intensity (wavelength 420): 125310
